TGI data for seven molecules are collected here from PubChem BioAssay (NCI).

Molecules are shown by their SMILES.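 A five-concentration, 48-hour dose response in 96-well plates underlies each endpoint, interpolated linearly between surrounding concentrations. TGI: concentration producing complete growth inhibition.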

Common to all, as to experiment: growth of human tumour cells (NCI), 48 h
Test [1] concerns SNB-75 CNS.
The subject of test [2] is A498 renal.
The test system of test [3] is NCI-H23 lung.
The test system of test [4] is OVCAR-8 ovarian.
For test [5], the system named is HCC-2998 colon.
Test [6] concerns SR leukemia.
Test [7] concerns SNB-19 CNS.
The test system of test [8] is MCF7 breast.
Test [9] relates to SK-MEL-5 melanoma.
Test [10] deals with COLO 205 colon.
Test [11] relates to MDA-MB-435.
In test [12] the test system is RPMI-8226 leukemia.
For test [13], the system named is CCRF-CEM leukemia.
Test [14] deals with EKVX NSCLC.
Test [15] relates to A549 NSCLC.
The test system of test [16] is HT29 colon.
The test system of test [17] is MDA-N.
Test [18] relates to HL-60(TB) leukemia.
The subject of test [19] is MOLT-4 leukemia.
Test [20] deals with HCT-15 colon.

With `Cc1nn2c(=O)c([N+](=O)[O-])c(/C=C/c3ccc(F)cc3)nc2s1`, the TGI is 31.3 µM in test [1]; 35.6 µM in test [2]; 23.5 µM in [3]; 16 µM in test [4]; 16.4 µM in test [5]; 16.5 µM in [6]. Also, the TGI in [7] was determined as 23.2 µM; in [8], 13.3 µM; in test [9] it was 15.8 µM; in test [10] it was 16.7 µM; in test [11], 10.5 µM; in test [12], 19.7 µM. Moreover, the TGI is 23.5 µM in test [13]; 22.5 µM in test [14]; 24.3 µM in test [15]; 16.5 µM in [16]; 15.8 µM in test [17]; 18.1 µM in test [18]. Moreover, the TGI in test [19] came to 28.6 µM; in test [20], 16.5 µM.

Turning to `Cc1cccc2c(=O)c3c(O)cc(O)cc3n(C)c12`, the TGI is more than 100 µM in [1]; 98.7 µM in [2]; more than 100 µM in test [3]; more than 100 µM in [4]; more than 100 µM in test [5]; more than 100 µM in [6]. Further, the TGI in test [7], in test [8], in test [9], in test [10], in [11] and in test [12] was more than 100 µM each time. Moreover, the TGI in test [13], in [14], in [15], in test [16], in test [17] and in test [18] was more than 100 µM each time. Also, the TGI in test [19] and in [20] was more than 100 µM throughout.

As to `CC(=O)O[C@H]1[C@@H](N2CCOCC2)C[C@H]2[C@@H]3CC=C4C[C@@H](N5CCCC5)CC[C@]4(C)[C@H]3CC[C@@]21C`, the TGI in test [1] was more than 100 µM; in [2], more than 100 µM; in test [3], more than 100 µM; in test [4], more than 100 µM; in test [5], more than 100 µM; in test [6] it was 83.7 µM. Moreover, the TGI in [7], in test [8], in [9], in test [10], in test [11] and in [12] was more than 100 µM each time. Also, the TGI in [13], in test [14], in [15], in test [16], in [17] and in [18] was more than 100 µM each time. In addition, the TGI in test [19] and in test [20] was more than 100 µM in each case.

On to `O=c1c(-c2nc3ccccc3c3ccccc3c2=O)nc2ccccc2c2ccccc12`, for which the TGI is 94.9 µM in test [1]; more than 100 µM in test [2]; more than 100 µM in test [3]; more than 100 µM in test [4]; 68 µM in test [5]; 61 µM in [6]. In addition, the TGI was more than 100 µM in test [7]; more than 100 µM in test [8]; 86.2 µM in test [9]; more than 100 µM in [10]; 89 µM in [11]; more than 100 µM in test [12]. Also, the TGI in test [13] was 86.8 µM; in [14], more than 100 µM; in [15], more than 100 µM; in test [16], more than 100 µM; in test [17] it was 69 µM; in test [18] it was 58.5 µM. In addition, the TGI in test [19] and in test [20] was more than 100 µM in each case.

Consider `Nc1nc(Sc2ccc([N+](=O)[O-])c3nonc23)c2[nH]cnc2n1`, for which the TGI in [1] was 12.2 µM; in test [2], 13.8 µM; in test [3], 10.9 µM; in test [4], 9.7 µM; in test [5] it was 7.93 µM; in test [6], 1.77 µM. The TGI is 31.4 µM in [7]; 12 µM in [8]; 7.8 µM in test [9]; 3.11 µM in [10]; 12 µM in test [11]; 5.62 µM in test [12]. The TGI in test [13] was 2.13 µM; in [14], 19 µM; in test [15] it was 25.1 µM; in test [16], 20.9 µM; in [17], 12.2 µM; in test [18], 4.86 µM. Further, the TGI in test [19] stood at 1.8 µM; in test [20], 14.1 µM.

Consider `CCOC(=O)C(O)(CC1=NC(C(=O)OC)(C(=O)OC)C(c2cccc(C=O)c2)O1)C(=O)OCC` (stereo not given), for which the TGI in test [1], in test [2], in test [3], in test [4], in test [5] and in [6] was more than 100 µM in each case. Further, the TGI in test [7], in test [8], in test [9], in [10], in test [11] and in test [12] was more than 100 µM each time. The TGI in test [13], in [14], in [15], in [16], in test [17] and in test [18] was more than 100 µM each time. Also, the TGI in test [19] and in [20] was more than 100 µM in each case.

For `S=c1ncc(-c2cncc(-c3cnc(=S)[nH]c3)n2)c[nH]1`, the TGI in test [1], in [2], in [3], in test [4], in test [5] and in [6] was more than 100 µM each time. Besides, the TGI in test [7], in test [8], in test [9], in [10], in test [11] and in [12] was more than 100 µM in each case. For the same molecule, the TGI in [13], in test [14], in test [15], in [16], in test [17] and in test [18] was more than 100 µM in each case. The TGI in [19] and in [20] was more than 100 µM each time.
